How the values were obtained:
[1] = target: T1, Serine/threonine-protein kinase 17B (Homo sapiens) (UniProt O94768); details: dose 10.0 µM
T1 sequence (whole entry): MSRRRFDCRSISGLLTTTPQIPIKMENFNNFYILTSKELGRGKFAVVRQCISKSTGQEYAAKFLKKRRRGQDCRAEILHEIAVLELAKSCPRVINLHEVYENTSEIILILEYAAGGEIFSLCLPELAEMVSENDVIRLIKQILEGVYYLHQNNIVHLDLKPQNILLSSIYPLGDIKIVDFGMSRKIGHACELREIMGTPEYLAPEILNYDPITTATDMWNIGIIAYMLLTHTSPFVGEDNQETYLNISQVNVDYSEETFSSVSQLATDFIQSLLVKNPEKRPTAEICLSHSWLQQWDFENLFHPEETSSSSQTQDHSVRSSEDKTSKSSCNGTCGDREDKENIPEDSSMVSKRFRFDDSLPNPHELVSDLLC

[2] = target: Cyclin-G-associated kinase (Homo sapiens) (UniProt O14976); assay: Binding affinity to human GAK assessed as thermal stability by measuring melting temperature 10 uM by differential scanning fluorimetry
[3] = target: T2, Dual specificity protein kinase TTK (Homo sapiens, UniProt P33981); assay: Displacement of tracer K9 from NanoLuc-fused MPS1 (unknown origin) expressed in HEK293T cells measured after 2 hrs by NanoBRET assay; format: cell-based
T2 sequence (P33981 whole entry): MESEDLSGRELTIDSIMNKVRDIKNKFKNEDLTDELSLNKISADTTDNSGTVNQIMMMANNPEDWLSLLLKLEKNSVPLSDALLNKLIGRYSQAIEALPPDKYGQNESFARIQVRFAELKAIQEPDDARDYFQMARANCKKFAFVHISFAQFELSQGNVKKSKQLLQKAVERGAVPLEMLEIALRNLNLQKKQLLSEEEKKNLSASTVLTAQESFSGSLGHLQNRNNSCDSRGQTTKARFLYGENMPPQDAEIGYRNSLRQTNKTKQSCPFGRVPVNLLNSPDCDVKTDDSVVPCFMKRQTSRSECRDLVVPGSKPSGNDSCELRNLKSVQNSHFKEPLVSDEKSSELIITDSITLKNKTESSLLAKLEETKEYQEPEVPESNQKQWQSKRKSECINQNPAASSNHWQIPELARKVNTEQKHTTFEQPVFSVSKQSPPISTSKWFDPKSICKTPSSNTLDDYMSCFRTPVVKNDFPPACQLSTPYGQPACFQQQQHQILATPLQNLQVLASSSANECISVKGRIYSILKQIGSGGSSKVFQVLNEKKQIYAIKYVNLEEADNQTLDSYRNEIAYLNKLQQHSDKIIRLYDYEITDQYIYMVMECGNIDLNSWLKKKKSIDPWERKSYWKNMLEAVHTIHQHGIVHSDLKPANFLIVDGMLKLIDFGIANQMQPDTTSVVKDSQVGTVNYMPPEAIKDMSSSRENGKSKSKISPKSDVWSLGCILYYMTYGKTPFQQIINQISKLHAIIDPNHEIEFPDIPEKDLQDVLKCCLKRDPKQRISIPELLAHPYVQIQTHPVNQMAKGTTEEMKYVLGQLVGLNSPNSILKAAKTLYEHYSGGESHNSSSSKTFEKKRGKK

[4] = target: T2, Dual specificity protein kinase TTK; assay: Inhibition of recombinant human full length N-terminal GST-fused MPS1 (1 to 857 residues) using histone H3 as substrate by TR-FRET assay

Cyclin-G-associated kinase (Homo sapiens), sequence (O14976 whole entry, the tested form may be a part): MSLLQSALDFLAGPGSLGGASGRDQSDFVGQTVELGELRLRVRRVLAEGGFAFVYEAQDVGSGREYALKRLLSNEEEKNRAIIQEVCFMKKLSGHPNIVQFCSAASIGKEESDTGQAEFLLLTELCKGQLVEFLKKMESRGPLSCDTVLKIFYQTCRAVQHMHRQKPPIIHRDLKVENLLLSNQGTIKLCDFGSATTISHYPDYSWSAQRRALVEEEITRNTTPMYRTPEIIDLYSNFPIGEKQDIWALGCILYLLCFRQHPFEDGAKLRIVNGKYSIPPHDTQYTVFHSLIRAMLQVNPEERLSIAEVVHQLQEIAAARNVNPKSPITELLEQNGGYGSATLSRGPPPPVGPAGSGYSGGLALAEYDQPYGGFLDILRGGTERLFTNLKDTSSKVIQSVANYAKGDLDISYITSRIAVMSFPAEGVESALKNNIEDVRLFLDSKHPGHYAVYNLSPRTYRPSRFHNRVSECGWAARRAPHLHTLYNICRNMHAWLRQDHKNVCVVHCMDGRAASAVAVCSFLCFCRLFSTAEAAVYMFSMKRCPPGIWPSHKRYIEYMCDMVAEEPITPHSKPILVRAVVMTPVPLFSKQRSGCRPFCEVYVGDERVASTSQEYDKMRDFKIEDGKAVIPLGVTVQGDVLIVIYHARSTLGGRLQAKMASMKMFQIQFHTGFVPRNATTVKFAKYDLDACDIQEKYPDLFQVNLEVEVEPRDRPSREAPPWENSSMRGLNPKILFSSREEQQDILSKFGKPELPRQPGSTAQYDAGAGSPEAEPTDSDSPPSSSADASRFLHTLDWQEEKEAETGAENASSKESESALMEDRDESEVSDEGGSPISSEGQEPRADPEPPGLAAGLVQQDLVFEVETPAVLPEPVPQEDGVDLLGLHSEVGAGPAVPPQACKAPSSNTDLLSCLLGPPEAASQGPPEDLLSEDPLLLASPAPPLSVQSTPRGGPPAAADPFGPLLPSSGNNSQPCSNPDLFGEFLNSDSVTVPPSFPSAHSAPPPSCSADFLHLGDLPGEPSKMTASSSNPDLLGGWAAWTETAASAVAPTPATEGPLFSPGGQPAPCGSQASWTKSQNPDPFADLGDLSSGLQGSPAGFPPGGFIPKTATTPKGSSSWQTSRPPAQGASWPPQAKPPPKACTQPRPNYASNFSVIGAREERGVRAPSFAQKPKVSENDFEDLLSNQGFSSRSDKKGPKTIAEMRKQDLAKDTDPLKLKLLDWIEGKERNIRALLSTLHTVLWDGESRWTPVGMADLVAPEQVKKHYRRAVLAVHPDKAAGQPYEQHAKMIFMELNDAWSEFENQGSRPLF

ΔTm [1] [°C]	ΔTm [2] [°C]	IC50 [3] [nM]	IC50 [4] [nM]	Structure (SMILES)
21.6	13.2	–	–	CCc1cccc(CC)c1NC(=O)c1ccn2c1CCc1cnc(Nc3ccc(N4CCN(C)CC4)cc3OC)nc1-2
17.4	–	32.7	9.06	CCC(=O)Nc1cc(N2CCN(C)CC2)ccc1Nc1ncc2c(n1)-n1ccc(C(=O)Nc3c(CC)cccc3CC)c1CC2
19.1	–	–	–	COc1ccc(Oc2cc(NCCC(F)(F)F)c3ncc(-c4ccc(C(=O)NC5CC5)c(C)c4)n3n2)c(F)c1F
